Results taken from the NIST ThermoML archive (doi:10.1021/je300652k).

Conditions: Liquid, Pulse-echo method

FC(F)=C(F)C(F)(F)F [hexafluoropropene]
Conditions | speed of sound [m/s]
253.27 K, 1150 kPa | 575.6
253.27 K, 10940 kPa | 645.3
253.27 K, 25910 kPa | 728.8
253.27 K, 52820 kPa | 844.3
253.27 K, 75030 kPa | 921.1
253.27 K, 100630 kPa | 997.3
253.27 K, 125810 kPa | 1063
253.27 K, 151420 kPa | 1123.6
253.27 K, 174830 kPa | 1174.3
253.27 K, 200450 kPa | 1224.7
253.27 K, 250580 kPa | 1315.5
253.27 K, 299650 kPa | 1393.8
253.27 K, 350190 kPa | 1468.5
253.27 K, 400740 kPa | 1535.4
273.17 K, 1130 kPa | 488.3
273.17 K, 10400 kPa | 567.9
273.17 K, 25040 kPa | 660.8
273.17 K, 50150 kPa | 779.5
273.17 K, 75280 kPa | 871.7
273.17 K, 100230 kPa | 949
273.17 K, 125430 kPa | 1017.1
273.17 K, 150270 kPa | 1077.5
273.17 K, 175810 kPa | 1133.8
273.17 K, 200700 kPa | 1184.6
273.17 K, 250800 kPa | 1276.7
273.17 K, 300450 kPa | 1358.2
273.17 K, 350820 kPa | 1432.3
273.17 K, 400090 kPa | 1499.6
288.15 K, 1160 kPa | 424.2
288.15 K, 5200 kPa | 468.9
288.15 K, 10130 kPa | 513.8
288.15 K, 25190 kPa | 618
288.15 K, 50080 kPa | 741.2
288.15 K, 75440 kPa | 837.6
288.15 K, 100170 kPa | 916.1
288.15 K, 125510 kPa | 986.4
288.15 K, 150630 kPa | 1048.4
288.15 K, 175250 kPa | 1103.9
288.15 K, 200700 kPa | 1156.6
288.15 K, 250380 kPa | 1249
288.15 K, 300040 kPa | 1331.1
288.15 K, 350970 kPa | 1407.7
288.15 K, 400410 kPa | 1475.2
303.15 K, 1990 kPa | 370.7
303.15 K, 10090 kPa | 463.9
303.15 K, 25160 kPa | 576.7
303.15 K, 50920 kPa | 709.3
303.15 K, 75370 kPa | 804.5
303.15 K, 100560 kPa | 886.5
303.15 K, 125410 kPa | 956.2
303.15 K, 150900 kPa | 1020.1
303.15 K, 175340 kPa | 1075.6
303.15 K, 200830 kPa | 1129
303.15 K, 250190 kPa | 1221.9
303.15 K, 300750 kPa | 1306.5
303.15 K, 350300 kPa | 1381.1
303.15 K, 400020 kPa | 1450.2
323.18 K, 2300 kPa | 288.3
323.18 K, 10550 kPa | 404.9
323.18 K, 28790 kPa | 547
323.18 K, 50380 kPa | 664.6
323.18 K, 75340 kPa | 767.2
323.18 K, 101090 kPa | 852.8
323.18 K, 125070 kPa | 921.8
323.18 K, 150670 kPa | 987.4
323.18 K, 175680 kPa | 1045.2
323.18 K, 200750 kPa | 1098.6
323.18 K, 250620 kPa | 1193.8
323.18 K, 300400 kPa | 1278
323.18 K, 350810 kPa | 1355.4
323.18 K, 400580 kPa | 1424.9
343.19 K, 4760 kPa | 245.5
343.19 K, 8270 kPa | 311.3
343.19 K, 10440 kPa | 341.8
343.19 K, 50540 kPa | 627.2
343.19 K, 75610 kPa | 730.9
343.19 K, 100650 kPa | 818.3
343.19 K, 125170 kPa | 890.4
343.19 K, 150340 kPa | 956.2
343.19 K, 175160 kPa | 1014.7
343.19 K, 200290 kPa | 1069
343.19 K, 250220 kPa | 1165.9
343.19 K, 300620 kPa | 1252
343.19 K, 350100 kPa | 1327.9
343.19 K, 400370 kPa | 1399.8
363.15 K, 10450 kPa | 287
363.15 K, 25500 kPa | 442
363.15 K, 50520 kPa | 592.9
363.15 K, 75490 kPa | 700.6
363.15 K, 100300 kPa | 787.2
363.15 K, 125230 kPa | 861.9
363.15 K, 150340 kPa | 928.6
363.15 K, 175590 kPa | 988.8
363.15 K, 200320 kPa | 1042.8
363.15 K, 250610 kPa | 1141.2
363.15 K, 300360 kPa | 1226.7
363.15 K, 350690 kPa | 1305.3
363.15 K, 400260 kPa | 1376
383.16 K, 15690 kPa | 310.6
383.16 K, 25690 kPa | 407.4
383.16 K, 50530 kPa | 562.3
383.16 K, 75940 kPa | 673.9
383.16 K, 100500 kPa | 761.1
383.16 K, 125630 kPa | 837.2
383.16 K, 150460 kPa | 903.4
383.16 K, 175770 kPa | 964.4
383.16 K, 200740 kPa | 1019.4
383.16 K, 250260 kPa | 1116.8
383.16 K, 300690 kPa | 1204.6
383.16 K, 350280 kPa | 1282.6
383.16 K, 400510 kPa | 1354.3
403.14 K, 16670 kPa | 288.3
403.14 K, 25610 kPa | 375.7
403.14 K, 50890 kPa | 537.5
403.14 K, 75640 kPa | 647.4
403.14 K, 100060 kPa | 737.1
403.14 K, 125630 kPa | 813.6
403.14 K, 150360 kPa | 880.3
403.14 K, 175620 kPa | 941.6
403.14 K, 200670 kPa | 997.2
403.14 K, 250500 kPa | 1096
403.14 K, 300660 kPa | 1183.8
403.14 K, 350610 kPa | 1262.3
403.14 K, 400280 kPa | 1333.6
423.15 K, 19600 kPa | 293.5
423.15 K, 25100 kPa | 345.1
423.15 K, 50800 kPa | 513
423.15 K, 75400 kPa | 623.9
423.15 K, 100710 kPa | 715.4
423.15 K, 125320 kPa | 791.3
423.15 K, 150160 kPa | 858.8
423.15 K, 175410 kPa | 920.3
423.15 K, 200520 kPa | 976.3
423.15 K, 250420 kPa | 1075.9
423.15 K, 300390 kPa | 1163.6
423.15 K, 350600 kPa | 1243
423.15 K, 400920 kPa | 1315.6
448.15 K, 25130 kPa | 318.1
448.15 K, 50710 kPa | 485
448.15 K, 75240 kPa | 596.6
448.15 K, 100750 kPa | 689.4
448.15 K, 125710 kPa | 766.5
448.15 K, 150770 kPa | 834.5
448.15 K, 175320 kPa | 894.5
448.15 K, 200820 kPa | 951.6
448.15 K, 250910 kPa | 1051.8
448.15 K, 300780 kPa | 1139.3
448.15 K, 350710 kPa | 1218.3
448.15 K, 400820 kPa | 1291.1
473.14 K, 25160 kPa | 298.7
473.14 K, 50460 kPa | 462.3
473.14 K, 75570 kPa | 576.7
473.14 K, 100220 kPa | 666.6
473.14 K, 125570 kPa | 745.3
473.14 K, 150690 kPa | 814
473.14 K, 175720 kPa | 875.3
473.14 K, 200800 kPa | 931.7
473.14 K, 250600 kPa | 1031.5
473.14 K, 300640 kPa | 1119.7
473.14 K, 350560 kPa | 1199
473.14 K, 400750 kPa | 1272
